Measurements: US9988400B2 (Genentech, Inc., priority 2013, dated 2018)

Target: T1, HEK cells stably transfected with tetracycline inducible hNR1 and hNR2A (Homo sapiens, UniProt Q05586+Q12879)
T1 construct: expressed in transfected cells; host or cells: HEK cells, stably transfected, tetracycline/doxycycline inducible
Assay: Assay 1: Cell-Based Assay, cytosolic calcium response to positive allosteric modulators (with 30 μM glycine and 300 nM L-glutamate, EC30)
Conditions: for EC50: cytosolic calcium response, with 30 μM glycine and 300 nM L-glutamate (EC30), — = no plateau was reached; for Max %: responses scaled relative to 100 μM L-glutamate maximal response (100%) and 0 μM L-glutamate (0%)
Description: Assay 1: Cell-Based Assay
HEK cells stably transfected with tetracycline inducible hNR1 and hNR2A were seeded into clear bottom 384 well poly-D-lysine coated plates (2.5×10^4 cells per well) in Minimum Essential Media (MEM; without L-) including 7.5 μg mL^−1 doxycycline and 500 μM (+)-ketamine. The cells were incubated at 37° C. in 5% CO2 for 24 h. For measurement of changes in cytosolic calcium, the seeding media was removed and the cells incubated at 37° C. for 60 min with 1× Becton Dickinson Calcium Assay Kit reagent in Hanks Balanced Salt Solution (HBSS; w/o magnesium, including 1.8 mM calcium, 0.65 mg ml^−1 probenecid and 10 μM (+)-ketamine, pH 7.15) then allowed to equilibrate to rt for 30 min. Concentration-effect curves to Positive Allosteric Modulators (PAMs) were constructed by adding different concentrations (with 30 μM glycine and 300 nM L-glutamate (EC30)) to different wells in HBSS. Compounds were added after a 10 second baseline read and maximum level of relative fluorescence units (RFU) was measured over a 5 min period. Responses were scaled relative to 100 μM L-glutamate maximal response (100%) and 0 μM L-glutamate (0%). EC50 values are provided for compounds reaching maximal response plateaus, and the max % (EC50 (- -)) only if no plateau was reached.
A four-parameter Hill equation was fitted to individual concentration-effect curves:
[formula] in which Y, S0, Sinf, AC50, n and c were effect, lower-asymptote, upper-asymptote, mid-point location, slope parameter, and concentration respectively.

T1 sequence (Q12879 23-1464, other chains not shown): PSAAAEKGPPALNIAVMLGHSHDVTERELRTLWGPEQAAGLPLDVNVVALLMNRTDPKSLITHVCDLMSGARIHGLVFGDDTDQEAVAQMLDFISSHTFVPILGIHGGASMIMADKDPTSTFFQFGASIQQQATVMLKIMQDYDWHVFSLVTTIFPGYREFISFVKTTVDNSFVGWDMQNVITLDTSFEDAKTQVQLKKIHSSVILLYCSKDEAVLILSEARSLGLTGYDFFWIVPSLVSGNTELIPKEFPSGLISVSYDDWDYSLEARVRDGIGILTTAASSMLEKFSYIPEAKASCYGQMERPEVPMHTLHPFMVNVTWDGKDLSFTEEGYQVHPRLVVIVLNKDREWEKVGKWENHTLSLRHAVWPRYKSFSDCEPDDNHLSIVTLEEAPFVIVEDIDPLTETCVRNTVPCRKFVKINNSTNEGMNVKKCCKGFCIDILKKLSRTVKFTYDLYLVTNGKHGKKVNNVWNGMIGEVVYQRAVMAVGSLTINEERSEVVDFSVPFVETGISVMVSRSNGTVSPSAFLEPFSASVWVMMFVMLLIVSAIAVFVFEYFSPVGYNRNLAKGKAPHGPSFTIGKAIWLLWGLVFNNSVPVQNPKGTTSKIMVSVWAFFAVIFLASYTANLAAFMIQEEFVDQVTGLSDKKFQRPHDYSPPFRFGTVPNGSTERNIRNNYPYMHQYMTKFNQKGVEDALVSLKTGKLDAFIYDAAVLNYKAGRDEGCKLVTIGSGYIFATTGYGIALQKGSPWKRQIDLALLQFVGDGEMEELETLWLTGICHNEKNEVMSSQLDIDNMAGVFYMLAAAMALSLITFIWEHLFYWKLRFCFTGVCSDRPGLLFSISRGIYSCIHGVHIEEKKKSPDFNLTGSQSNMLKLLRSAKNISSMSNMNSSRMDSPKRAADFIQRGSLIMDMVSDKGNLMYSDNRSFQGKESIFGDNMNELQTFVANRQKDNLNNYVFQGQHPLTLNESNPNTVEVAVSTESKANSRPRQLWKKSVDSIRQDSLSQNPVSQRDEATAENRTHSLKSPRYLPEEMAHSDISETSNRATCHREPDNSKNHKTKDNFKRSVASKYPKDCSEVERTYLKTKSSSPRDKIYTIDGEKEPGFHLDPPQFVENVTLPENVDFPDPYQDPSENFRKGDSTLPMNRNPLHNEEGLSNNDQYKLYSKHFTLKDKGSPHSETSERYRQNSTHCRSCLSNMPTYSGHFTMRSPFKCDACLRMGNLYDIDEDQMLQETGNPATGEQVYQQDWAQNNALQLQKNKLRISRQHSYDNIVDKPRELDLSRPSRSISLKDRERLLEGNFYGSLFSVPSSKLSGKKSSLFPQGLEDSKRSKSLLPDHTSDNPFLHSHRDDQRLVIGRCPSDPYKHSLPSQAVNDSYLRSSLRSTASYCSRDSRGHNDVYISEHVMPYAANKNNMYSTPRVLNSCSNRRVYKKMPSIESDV

Structure (SMILES)	EC50 (Table 2) [µM]	Max % (Table 2) [%]	EC50 (Table 3) [µM]
COc1ccc(C#N)cc1Cc1cc(=O)n2c([C@@H]3C[C@H]3CO)c(C)sc2n1 (relative stereo) [Example 20.10, 3-[[3-[trans-2-(hydroxymethyl)cyclopropyl]-2-methyl-5-oxo-thiazolo[3,2-a]pyrimidin-7-yl]methyl]-4-methoxy-benzonitrile]	9.1	127	
Cc1sc2nc(Cc3ccnc(C#N)c3)cc(=O)n2c1[C@@H]1C[C@H]1CO (relative stereo) [Example 20.12, 4-((3-(trans-2-(hydroxymethyl)cyclopropyl)-2-methyl-5-oxo-5H-thiazolo[3,2-a]pyrimidin-7-yl)methyl)picolinonitrile]		74	
Cc1sc2nc(Cc3cc(C#N)ccc3C3CC3)cc(=O)n2c1[C@@H]1C[C@H]1CO (relative stereo) [Example 20.13, 4-cyclopropyl-3-((3-(trans-2-(hydroxymethyl)cyclopropyl)-2-methyl-5-oxo-5H-thiazolo[3,2-a]pyrimidin-7-yl)methyl)benzonitrile]	5.8	146	
Cc1sc2nc(COc3ccc(F)cc3)cc(=O)n2c1C1CC1CO (single isomer, unassigned) [Example 4.1, 7-(4-Fluorophenoxymethyl)-3-[trans-2-(hydroxymethyl)cyclopropyl]-2-methyl-5H-[1,3]thiazolo[3,2-a]pyrimidin-5-one]	5.1	141	
Cc1sc2nc(COc3ccc(F)cc3)cc(=O)n2c1C1CC1CO (single isomer, unassigned) [Example 4.2, 7-(4-Fluorophenoxymethyl)-3-[trans-2-(hydroxymethyl)cyclopropyl]-2-methyl-5H-[1,3]thiazolo[3,2-a]pyrimidin-5-one]	1.3	137	
Cc1sc2nc(COc3ccc(F)cc3)cc(=O)n2c1C1CC1CO (single isomer, unassigned) [Example 4.3, 7-(4-Fluorophenoxymethyl)-3-[trans-2-(hydroxymethyl)cyclopropyl]-2-methyl-5H-[1,3]thiazolo[3,2-a]pyrimidin-5-one]	20.5	71.6	
Cc1sc2nc(COc3ccc(F)cc3)cc(=O)n2c1C1CC1C#N (single isomer, unassigned) [Example 4.19, cis-2-[7-(4-Fluorophenoxymethyl)-2-methyl-5-oxo-5H-[1,3]thiazolo[3,2-a]pyrimidin-3-yl]cyclopropane-1-carbonitrile]	9	46.9	
Cc1sc2nc(COc3ccc(F)cc3)cc(=O)n2c1C1CC1C#N (single isomer, unassigned) [Example 4.20, cis-2-[7-(4-Fluorophenoxymethyl)-2-methyl-5-oxo-5H-[1,3]thiazolo[3,2-a]pyrimidin-3-yl]cyclopropane-1-carbonitrile]	2.4	93.9	
Cc1sc2nc(COc3ccc(F)cc3)cc(=O)n2c1[C@@H]1C[C@H]1C#N (single isomer, unassigned) [Example 4.21, trans-2-[7-(4-Fluorophenoxymethyl)-2-methyl-5-oxo-5H-[1,3]thiazolo[3,2-a]pyrimidin-3-yl]cyclopropane-1-carbonitrile]	16.3	47.4	
Cc1sc2nc(COc3ccc(F)cc3)cc(=O)n2c1[C@@H]1C[C@H]1C#N (single isomer, unassigned) [Example 4.22, trans-2-[7-(4-Fluorophenoxymethyl)-2-methyl-5-oxo-5H-[1,3]thiazolo[3,2-a]pyrimidin-3-yl]cyclopropane-1-carbonitrile]		84.2	
CCN(Cc1cc(=O)n2c(C3CC3CO)c(C)sc2n1)c1ccc(F)cc1 (single isomer, unassigned) [Example 5.18, 7-((ethyl(4-fluorophenyl)amino)methyl)-3-(trans-2-(hydroxymethyl)cyclopropyl)-2-methyl-5H-thiazolo[3,2-a] pyrimidin-5-one]	0.091	164	
CCN(Cc1cc(=O)n2c(C3CC3CO)c(C)sc2n1)c1ccc(F)cc1 (single isomer, unassigned) [Example 5.19, 7-((ethyl(4-fluorophenyl)amino)methyl)-3-(trans-2-(hydroxymethyl)cyclopropyl)-2-methyl-5H-thiazolo[3,2-a] pyrimidin-5-one]	1.7	141	
Cc1sc2nc(CN(CCF)c3ccc(F)cc3)cc(=O)n2c1C1CC1CO (single isomer, unassigned) [Example 5.42, 7-[[4-fluoro-N-(2-fluoroethyl)anilino]methyl]-3-trans-2-(hydroxymethyl)cyclopropyl]-2-methyl-thiazolo[3,2-a]pyrimidin-5-one]	0.0329	162	
Cc1sc2nc(CN(CCF)c3ccc(F)cc3)cc(=O)n2c1[C@@H]1C[C@H]1CO (single isomer, unassigned) [Example 5.43, 7-[[4-fluoro-N-(2-fluoroethyl)anilino]methyl]-3-[trans-2-(hydroxymethyl)cyclopropyl]-2-methyl-thiazolo[3,2-a]pyrimidin-5-one]	0.821	145	
CCN(Cc1cc(=O)n2c3c(sc2n1)CCC3CO)c1ccc(F)cc1 (single isomer, unassigned) [Example 8.3, 6-[(N-ethyl-4-fluoro-anilino)methyl]-1-(hydroxymethyl)-2,3-dihydro-1H-cyclopenta[3,4]thiazolo[1,4-a]pyrimidin-8-one]	1.3	150	
CCN(Cc1cc(=O)n2c3c(sc2n1)CCC3CO)c1ccc(F)cc1 (single isomer, unassigned) [Example 8.4, 6-[(N-ethyl-4-fluoro-anilino)methyl]-1-(hydroxymethyl)-2,3-dihydro-1H-cyclopenta[3,4]thiazolo[1,4-a]pyrimidin-8-one]	0.569	164	
CCN(Cc1cc(=O)n2c(C(O)CCO)c(C)sc2n1)c1ccc(F)cc1 (single isomer, unassigned) [Example 12.3, 3-(1,3-dihydroxypropyl)-7-[(N-ethyl-4-fluoro-anilino)methyl]-2-methyl-thiazolo[3,2-a]pyrimidin-5-one]	1.6	183	
CCN(Cc1cc(=O)n2c(C(O)CCO)c(C)sc2n1)c1ccc(F)cc1 (single isomer, unassigned) [Example 12.4, 3-(1,3-dihydroxypropyl)-7-[(N-ethyl-4-fluoro-anilino)methyl]-2-methyl-thiazolo[3,2-a]pyrimidin-5-one]	0.591	176	
Cc1cc(C2CC2)n(Cc2cc(=O)n3c([C@@H]4C[C@H]4CO)c(C)sc3n2)n1 (single isomer, unassigned) [Example 15.13, 7-[(5-cyclopropyl-3-methyl-pyrazol-1-yl)methyl]-3-[2-(hydroxymethyl)cyclopropyl]-2-methyl-thiazolo[3,2-a]pyrimidin-5-one]		67.6	
Cc1cc(C2CC2)n(Cc2cc(=O)n3c([C@@H]4C[C@H]4CO)c(C)sc3n2)n1 (single isomer, unassigned) [Example 15.14, 7-[(5-cyclopropyl-3-methyl-pyrazol-1-yl)methyl]-3-[2-(hydroxymethyl)cyclopropyl]-2-methyl-thiazolo[3,2-a]pyrimidin-5-one]	3.1	159	
Cc1sc2nc(Cn3nc(C4CC4)cc3C)cc(=O)n2c1[C@@H]1C[C@H]1CO (single isomer, unassigned) [Example 15.15, 7-[(3-cyclopropyl-5-methyl-pyrazol-1-yl)methyl]-3-[2-(hydroxymethyl)cyclopropyl]-2-methyl-thiazolo[3,2-a]pyrimidin-5-one]		61.9	
Cc1sc2nc(Cn3nc(C4CC4)cc3C)cc(=O)n2c1C1CC1CO (single isomer, unassigned) [Example 15.16, 7-[(3-cyclopropyl-5-methyl-pyrazol-1-yl)methyl]-3-[2-(hydroxymethyl)cyclopropyl]-2-methyl-thiazolo[3,2-a]pyrimidin-5-one]	17.7	115	
Cc1sc2nc(Cn3nc(C(F)(F)F)cc3Cl)cc(=O)n2c1C1CC1C#N (single isomer, unassigned) [compound 125]			0.0278
Cc1sc2nc(Cn3nc(C(F)(F)F)cc3Cl)cc(=O)n2c1[C@@H]1C[C@@H]1C#N (single isomer, unassigned) [compound 126]			0.249
Cc1sc2nc(Cn3nc(C(F)(F)F)cc3Cl)cc(=O)n2c1C1CC1CO (single isomer, unassigned) [compound 136]			0.0391
Cc1sc2nc(Cn3nc(C(F)(F)F)cc3Cl)cc(=O)n2c1C1CC1CO (single isomer, unassigned) [compound 137]			0.42
Cc1sc2nc(Cn3nc(C(F)(F)F)cc3Cl)cc(=O)n2c1C1CC1C (single isomer, unassigned) [compound 154]			0.504
Cc1sc2nc(Cn3nc(C(F)(F)F)cc3Cl)cc(=O)n2c1C1CC1C (single isomer, unassigned) [compound 155]			0.0616
